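Method: 48-hour compound exposure of cells in 96-well plates, five concentrations, linear interpolation of endpoints. GI50 marks 50% less growth.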 Active and inactive are the calls of the source. No stated cut-off is given here; in the data, active = GI50 up to about 1.1 µM and inactive = higher.
Key:
Experiment in all cases: DTP human tumour cell line panel, 48 h
CCRF-CEM = test system: CCRF-CEM
HCT-15 = test system: HCT-15
HOP-62 = test system: HOP-62
HT-29 = test system: HT-29
Hs-578T = test system: Hs-578T
KM12 = test system: KM12
LOX IMVI = test system: LOX IMVI
M14 = test system: M14
MDA-MB-435 = test system: MDA-MB-435
NCI-H23 = test system: NCI-H23
RPMI-8226 = test system: RPMI-8226
SF-268 = test system: SF-268
SF-539 = test system: SF-539
SK-MEL-2 = test system: SK-MEL-2
SK-MEL-5 = test system: SK-MEL-5
SR = test system: SR
T47D = test system: T47D
UACC-62 = test system: UACC-62
SK-OV-3 = test system: SK-OV-3
HOP-92 = test system: HOP-92

Structure (SMILES) | GI50 (CCRF-CEM) | GI50 (HCT-15) | GI50 (HOP-62) | GI50 (HT-29) | GI50 (Hs-578T) | GI50 (KM12) | GI50 (LOX IMVI) | GI50 (M14) | GI50 (MDA-MB-435) | GI50 (NCI-H23) | GI50 (RPMI-8226) | GI50 (SF-268) | GI50 (SF-539) | GI50 (SK-MEL-2) | GI50 (SK-MEL-5) | GI50 (SR) | GI50 (T47D) | GI50 (UACC-62) | GI50 (SK-OV-3) | GI50 (HOP-92)
C/C(CC1SCCCS1)=C(/C)CC1SCCCS1 | > 100 µM (inactive) | > 100 µM | > 100 µM (inactive) | > 100 µM (inactive) | > 100 µM (inactive) | > 100 µM (inactive) | > 100 µM (inactive) | > 100 µM (inactive) | > 100 µM (inactive) | > 100 µM (inactive) | > 100 µM (inactive) | > 100 µM (inactive) | > 100 µM (inactive) | > 100 µM (inactive) | > 100 µM (inactive) | > 100 µM (inactive) | > 100 µM (inactive) | > 100 µM (inactive) | – | –
COc1ccc2cc1Oc1ccc(cc1)C(Sc1ccccc1)CCOC(=O)CC2 (configuration not stated) | > 100 µM (inactive) | 18.1 µM | > 100 µM (inactive) | > 100 µM (inactive) | > 100 µM (inactive) | > 100 µM (inactive) | > 100 µM (inactive) | > 100 µM (inactive) | > 100 µM (inactive) | > 100 µM (inactive) | 13.4 µM (inactive) | > 100 µM (inactive) | > 100 µM (inactive) | > 100 µM (inactive) | 63.1 µM (inactive) | > 100 µM (inactive) | 11.5 µM (inactive) | > 100 µM (inactive) | > 100 µM (inactive) | –
COc1cc(C(=O)O)c(-c2cc3c(cc2C=O)OCO3)c(OC)c1OC | > 10 µM (inactive) | > 10 µM | > 10 µM (inactive) | > 10 µM (inactive) | > 10 µM (inactive) | > 10 µM (inactive) | > 10 µM (inactive) | > 10 µM (inactive) | > 10 µM (inactive) | > 10 µM (inactive) | > 10 µM (inactive) | > 10 µM (inactive) | > 10 µM (inactive) | – | > 10 µM (inactive) | > 10 µM (inactive) | > 10 µM (inactive) | > 10 µM (inactive) | > 10 µM (inactive) | > 10 µM (inactive)
COc1ccc(C2=NN(C(=O)c3ccc(Cl)cc3)C(O)(c3cc(F)c(Cl)cc3Cl)C2)cc1 (configuration not stated) | 50.2 µM (inactive) | 28.1 µM | > 100 µM (inactive) | 17.3 µM (inactive) | > 100 µM (inactive) | 24.5 µM (inactive) | 77.8 µM (inactive) | 44.8 µM (inactive) | 18.6 µM (inactive) | 37.6 µM (inactive) | 22.9 µM (inactive) | > 100 µM (inactive) | > 100 µM (inactive) | 21.7 µM (inactive) | > 100 µM (inactive) | – | 57.7 µM (inactive) | > 100 µM (inactive) | > 100 µM (inactive) | > 100 µM (inactive)
CC(=O)N[C@@H](Cc1ccc(O)cn1)C(=O)NCc1cccc(Cl)c1 | > 100 µM (inactive) | > 100 µM | > 100 µM (inactive) | > 100 µM (inactive) | > 100 µM (inactive) | > 100 µM (inactive) | > 100 µM (inactive) | > 100 µM (inactive) | > 100 µM (inactive) | > 100 µM (inactive) | > 100 µM (inactive) | > 100 µM (inactive) | > 100 µM (inactive) | > 100 µM (inactive) | > 100 µM (inactive) | > 100 µM (inactive) | > 100 µM (inactive) | > 100 µM (inactive) | > 100 µM (inactive) | –
COC(=O)/N=[N+](\[O-])C(c1ccccc1)c1ccccc1 | 82 µM (inactive) | 89.7 µM | – | > 100 µM (inactive) | > 100 µM (inactive) | > 100 µM (inactive) | 69 µM (inactive) | 31.8 µM (inactive) | 31 µM (inactive) | 29.1 µM (inactive) | 38.5 µM (inactive) | > 100 µM (inactive) | > 100 µM (inactive) | 43.2 µM (inactive) | 41.9 µM (inactive) | > 100 µM (inactive) | 40.2 µM (inactive) | 51.6 µM (inactive) | > 100 µM (inactive) | –
